Laboratory results: patent publication US8735398B2 (Bristol-Myers Squibb Company, priority 2009, dated 2014)

Tested on: HCV 1b genotype
Assay: HCV replicon assay (HCV-neo replicon cells, wild-type)
Type: cell-based, Hepatitis C virus
Conditions: HCV 1b genotype replicon; class symbol; read-out: EC50 Range against HCV 1b
How it was run: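 HCV-neo replicon cells (wild-type) and replicon cells carrying NS5A resistance substitutions were treated with compounds; assay per O'Boyle et al. 2005, with luciferase-reporter read-out variants also used.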

**Q.** Which EC50 does the source give for `CN(C)C(C(=O)N1CCC[C@H]1C(=O)Nc1ccc(-c2cnc(-c3ccc(NC(=O)[C@@H]4CCCN4C(=O)C(c4ccc(F)cc4F)N(C)C)cc3)o2)cc1)c1ccc(F)cc1F` (single isomer, unassigned) [Example D-6] here?
**A.** < 4.57 nM

Same assay, conditions: Hepatitis C virus, HCV 1b genotype replicon; class symbol; read-out: EC50 Range against HCV 1b

**Q.** How did the EC50 turn out when `O=C(Nc1ccc(-c2nnc(-c3ccc(NC(=O)[C@@H]4CCCCN4C(=O)OCc4ccccc4)cc3)o2)cc1)[C@@H]1CCCCN1C(=O)OCc1ccccc1` [RK-4, dibenzyl (2S,2′S)-2,2′-(1,3,4-oxadiazole-2,5-diylbis(4,1-phenylenecarbamoyl))di(1-piperidinecarboxylate)] was run?
**A.** 100 to 999 nM

**Q.** How did the EC50 turn out when `CC(=O)N1CCC[C@H]1C(=O)Nc1ccc(-c2cnc(-c3ccc(NC(=O)C4CC(=O)N(CCc5cccs5)C4)cc3)o2)cc1` (stereo partly drawn) [MS-5, (2S)-1-acetyl-N-[4-[2-[4-[[[5-oxo-1-[2-(2-thienyl)ethyl]-3-pyrrolidinyl]carbonyl]amino]phenyl]-5-oxazolyl]phenyl]-2-pyrrolidinecarboxamide] was run?
**A.** 100 to 999 nM

**Q.** Which EC50 does the source give for `O=C(Nc1ccc(-c2cnc(-c3ccc(NC(=O)[C@@H]4CCCCN4C(=O)Cc4ccccc4)cc3)o2)cc1)[C@@H]1CCCCN1C(=O)Cc1ccccc1` [JG-6, (2S,2′S)-N,N′-(1,3-oxazole-2,5-diyldi-4,1-phenylene)bis(1-(phenylacetyl)-2-piperidinecarboxamide)] here?
**A.** 100 to 999 nM

**Q.** For `CC(=O)N[C@@H](C(=O)N1CCCC1C(=O)Nc1ccc(-c2cnc(-c3ccc(NC(=O)C4CCCN4C(=O)[C@H](NC(C)=O)c4ccccc4)cc3)o2)cc1)c1ccccc1` (stereo partly drawn) [OL-53, N,N′-(1,3-oxazole-2,5-diyldi-4,1-phenylene)bis(1-((2R)-2-acetamido-2-phenylacetyl)-2-pyrrolidinecarboxamide)], which EC50 is on record?
**A.** < 4.57 nM

**Q.** `COc1cccc2c(C(=O)N3CCC[C@H]3C(=O)Nc3ccc(-c4nnc(-c5ccc(NC(=O)[C@@H]6CCCN6C(=O)c6nc(Cl)cc7c(OC)cccc67)cc5)o4)cc3)nc(Cl)cc12` [RK-32, (2S,2′S)-N,N′-(1,3,4-oxadiazole-2,5-diyldi-4,1-phenylene)bis(1-((3-chloro-5-methoxy-1-isoquinolinyl)carbonyl)-2-pyrrolidinecarboxamide)] was tested. Which EC50 did it give?
**A.** 100 to 999 nM

**Q.** For `O=C(Nc1ccc(-c2cnc(-c3ccc(NC(=O)[C@@H]4CCCN4C(=O)OCc4ccccc4)cc3)o2)cc1)[C@@H]1CCCN1C(=O)OCc1ccccc1` [JG-1, dibenzyl (2S,2′S)-2,2′-(1,3-oxazole-2,5-diylbis(4,1-phenylenecarbamoyl))di(1-pyrrolidinecarboxylate)], which EC50 is on record?
**A.** < 4.57 nM

**Q.** Which EC50 does the source give for `C[C@H](NC(=O)[C@@H](O)c1ccccc1)C(=O)Nc1ccc(-c2nnc(-c3ccc(NC(=O)[C@H](C)NC(=O)[C@@H](O)c4ccccc4)cc3)o2)cc1` [RK-24, (2S,2′S)-N,N′-(1,3,4-oxadiazole-2,5-diyldi-4,1-phenylene)bis(2-(((2S)-2-hydroxy-2-phenylacetyl)amino)propanamide)] here?
**A.** 100 to 999 nM

Same assay, conditions: Hepatitis C virus, HCV 1b genotype replicon; class symbols; read-out: EC50 Range against HCV 1b

**Q.** How did the EC50 turn out when `COC(C(=O)N1C[C@H](O)C[C@H]1C(=O)Nc1ccc(-c2cnc(-c3ccc(NC(=O)[C@@H]4C[C@@H](O)CN4C(=O)C(OC)c4ccccc4)cc3)o2)cc1)c1ccccc1` (stereo partly drawn) [XY-49, (2S,4R,2′S,4′R)-N,N′-(1,3-oxazole-2,5-diyldi-4,1-phenylene)bis(4-hydroxy-1-(methoxy(phenyl)acetyl)-2-pyrrolidinecarboxamide)] was run?
**A.** 4.57 to 99 nM

**Q.** For `O=C(Nc1ccc(-c2cnc(-c3ccc(NC(=O)[C@@H]4CCCN4C(=O)c4ccc5c(c4)OCO5)cc3)o2)cc1)[C@@H]1CCCN1C(=O)c1ccc2c(c1)OCO2` [XY-36, (2S,2′S)-N,N′-(1,3-oxazole-2,5-diyldi-4,1-phenylene)bis(1-(1,3-benzodioxol-5-ylcarbonyl)-2-pyrrolidinecarboxamide)], which EC50 is on record?
**A.** 100 to 999 nM

**Q.** `Cc1noc(C)c1C(=O)N1CCC[C@H]1C(=O)Nc1ccc(-c2cnc(-c3ccc(NC(=O)[C@@H]4CCCN4C(=O)c4c(C)noc4C)cc3)o2)cc1` [XY-28, (2S,2′S)-N,N′-(1,3-oxazole-2,5-diyldi-4,1-phenylene)bis(1-((3,5-dimethyl-4-isoxazolyl)carbonyl)-2-pyrrolidinecarboxamide)] was tested. Which EC50 did it give?
**A.** 100 to 999 nM
